Measurements from patent US9958439B2, “Carbohydrate detection” (RICHTER LIFE SCIENCE DEVELOPMENT AB, priority 2012, dated 2018).
Like-named read-outs stand apart in the source and are kept apart here.

Experiments:
[1] = system: biofilm of S. enteritidis wt strain 3934 and isogenic mutants ΔbscA, ΔcsgA, ΔcsgD; assay: LCO assay for fluorescence confocal analysis of biofilm and biofilm morphology; assay type: cell-based, Salmonella enteritidis; details: for fluorescent signal from the LCO on biofilm versus phase contrast microscopy: 2 μg/ml LCO, fixed and washed cover-slip biofilm
Excerpt: Fluorescence confocal analysis (left side) and phase contrast analysis (right side) of the same slide are shown side by side.
Glass cover-slips were introduced to the wells of a 6-well plate (according to the set-up shown in FIG. 2A) to provide surfaces for biofilm formation, which at the end of experiment could be easily removed for microscope analysis. To prepare for the biofilm experiment, individual cultures of S. enteritidis wt strain 3934 and isogenic mutants ΔbscA, ΔcsgA, and ΔcsgD were grown in LB medium in flasks overnight. Each culture was diluted 100-fold in fresh LB and cultivated in a shaking incubator (230 rpm) at 37° C. to OD600=0.6. Cultures were diluted to a culture density of 10^5 CFU/ml in LB without salt and dispensed into the cover-slip containing 6 well plates in 8 ml aliquots. After incubating the plates for 48 h at 28° C., glass cover-slips were removed and washed twice with PBS before fixation in 4 ml of 4% formaldehyde for 1 h. […] PBS functioned as the negative control, used to assess the level of auto-fluorescence. Treated slides were then washed twice with PBS and mounted with Vectashield® for fluorescence-based confocal laser scanning microscopy analysis. Specifically, the edge of the biofilm formed at the liquid air interface was visualized using the appropriate fluorescence filters. […] The right side is an overlay of an optical inspection of bacterial presence by phase contrast with LCO fluorescence. Phase contrast is a traditional method for visual confirmation of biofilm attachment on surfaces.

[2] = system: biofilm (curli, cellulose) of S. enteritidis wt strain 3934 and isogenic mutants; details: 2 μg/ml LCO, unprocessed cultures, excitation 300-500 nm, emission 545 nm
Experimental: A fresh overnight culture of the clinically derived S. enteritidis wt strain 3934 and isogenic mutants (ΔbscA; ΔcsgA and ΔcsgD) was inoculated into fresh LB and cultivated at 37° C. to OD600=0.6. […] 50 μl of each culture was next inoculated in triplicates into separate wells of 96-well plates and incubated at 28° C. for 48 hours.
After removing the biofilm cultures from the incubator, no processing steps were implemented before the detection of LCO signals. […] Emission spectra for curli bound LCOs was collected by reading the emission signal between 500-700 nm when the sample was excited at 405 nm. Emission spectra for cellulose bound LCOs was collected by reading the emission signal between 520-700 nm when the sample was excited at 500 nm.

[3] = system: biofilm (curli, cellulose) of S. enteritidis 3934 wt and isogenic mutants; assay: Real time tracking of biofilm formation with h-FTAA; assay type: cell-based, Salmonella enteritidis; details: 2 μg/ml in culture, curli Ex 405/Em 556 nm, cellulose Ex 500/Em 600 nm, hourly over 48 h
Experimental: A) comparison of OD600 (. . . ) against GFP signal (_) of a wt biofilm culture over 48 hours; B) correlation of OD600 against GFP signal; […].
The turbidity of a bacterial culture, measured by absorbance at OD600, is used to define culture density. Expression of GFP provides a direct representation of bacterial growth and culture density. S. enteritidis 3934 wt and isogenic mutants ΔbscA, ΔcsgA, and ΔcsgD were transformed with the plasmid P2777 which carries the gfp gene for a more direct representation of culture density through fluorescence detection. […] […]. RFU data of GFP and h-FTAA from the four plates were combined in a single plot to visualize the hourly change in signals over time.

[4] = for RFU change (Correlation analysis): probe-specific excitation λ, emission 545 nm; for carbohydrate can be detected and/or differentiated by the LCO: conclusion from change in signal magnitude and/or shift in λmax
How it was run: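 Each LCO probe at 3 μM was added to two-fold serial dilutions of carbohydrate in dH2O (10–0.039 mg/ml for β-1,3-glucan, cellulose, chitin; 5–0.019 mg/ml for the others), run in triplicate. Excitation spectra were scanned 300–500 nm with emission at 545 nm. Detection was a reproducible λmax and/or RFU shift versus negative control, with linear regression of RFU against concentration.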

[5] = How it was run: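 LCO probes (3 μM) were added to serial two-fold dilutions of carbohydrate suspensions in dH2O, with excitation scanned 300–500 nm and emission at 545 nm. Detection was a reproducible λmax and/or RFU change versus no-carbohydrate control. RFU was regressed linearly against concentration at the λmax or the lowest-background excitation.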
[6] = remark: listed apart in the source
How it was run: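 LCO probes at 3 μM mixed with serial two-fold carbohydrate dilutions in water (10–0.039 or 5–0.019 mg/ml), run in triplicate. Excitation scanned 300–500 nm with emission at 545 nm; detection based on reproducible λmax or RFU shift against the no-carbohydrate control, with linear regression of RFU on concentration.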

[7] = for RFU change (Correlation analysis): probe-specific excitation λ, emission 545 nm; for carbohydrate can be detected and/or differentiated by the LCO: conclusion from change in signal magnitude and/or shift in λmax; remark: listed apart in the source
How it was run: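 LCO probes at 3 μM mixed with serial two-fold dilutions of carbohydrate in dH2O (10–0.039 or 5–0.019 mg/ml, depending on carbohydrate), in triplicate. Excitation scanned 300–500 nm or fixed per probe (λmax or lowest background), emission at 545 nm. Detection taken as reproducible λmax/RFU shift vs no-carbohydrate control; RFU regressed linearly on concentration.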

[8] = for RFU change (Correlation analysis): probe-specific excitation λ, emission 545 nm; for carbohydrate can be detected and/or differentiated by the LCO: conclusion from change in signal magnitude and/or shift in λmax; for Gradient Parameters (gradient of regression line) / Linear relationship / Quality of Gradient: linear regression
How it was run: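 LCO probes at 3 μM mixed with serial twofold carbohydrate dilutions in dH2O (10–0.039 or 5–0.019 mg/ml, depending on carbohydrate). Excitation scanned 300–500 nm, emission read at 545 nm; detection defined as reproducible shift in λmax and/or RFU relative to negative control, with linear regression of RFU against concentration.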

[9] = remark: listed apart in the source
How it was run: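 3 μM of each LCO probe was added to serial two-fold carbohydrate dilutions in water (10–0.039 or 5–0.019 mg/ml). Excitation spectra were scanned 300–500 nm with emission at 545 nm, in triplicate. Detection was defined as a reproducible shift in λmax and/or RFU versus negative control, with linear regression of RFU against concentration.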

[10] = Chitin 10-[…], 3 μM probe, spectral analysis, Excitation 300-500, Emission 545
[11] = cellulose concentration vs RFU, linear regression
[12] = chitin concentration vs RFU, linear regression
[13] = β-1,3-glucan concentration vs RFU, linear regression
[14] = sodium alginate concentration vs RFU, linear regression
[15] = glucose concentration vs RFU, linear regression
[16] = Cellulobiose 5-0.019 mg/ml, 3 μM probe, spectral analysis, Excitation 300-500, Emission 545
[17] = amylose concentration vs RFU, linear regression
[18] = cellulobiose concentration vs RFU, linear regression
[19] = Glycogen 5-0.019 mg/ml, 3 μM probe, spectral analysis, Excitation 300-500, Emission 545
[20] = Chondroitin Sulfate A 5-0.019 mg/ml, 3 μM probe, spectral analysis, Excitation 300-500, Emission 545
[21] = Chondroitin Sulfate A concentration vs RFU, linear regression

hepta Hydrogen Thiophene Acetic Acid [h-HTAA]
fluorescent signal from the LCO on biofilm versus phase contrast microscopy [1]: coincides with visible bacteria aggregates | differentiation of biofilm morphologies of isogenic mutants by excitation spectra [2]: did not differentiate biofilm morphologies

O=C(O)Cc1cc(-c2ccc(-c3ccc(C(=O)O)s3)s2)sc1-c1ccc(-c2sc(-c3ccc(-c4ccc(C(=O)O)s4)s3)cc2CC(=O)O)s1 [h-FTAA, hepta Formic Thiophene Acetic Acid]
fluorescent signal from the LCO on biofilm versus phase contrast microscopy [1]: coincides with visible bacteria aggregates | fluorescent signal with cellulose+ curli− ΔcsgA biofilm ([1]; 2 μg/ml, ΔcsgA, confocal microscopy): gave a fluorescent signal | real time analysis of biofilm formation [3]: enables real time analysis of biofilm formation

O=C([O-])CC[C@H](NC(=O)Cc1cc(-c2cccs2)sc1-c1ccc(-c2sc(-c3cccs3)cc2CC(=O)N[C@@H](CCC(=O)[O-])C(=O)[O-])s1)C(=O)[O-].[Na+].[Na+].[Na+].[Na+] [pHTA-Glu, penta Hydrogen Thiophene Acetic acid Glutamic acid]
RFU change (Correlation analysis) ([4]; Cellulose 10-[…], 3 μM probe): Decrease | RFU change (Signal deviation with increasing [Carbohydrate]) ([4]; Cellulose 10-[…], 3 μM probe, spectral analysis, Excitation 300-500, Emission 545): Unclear | RFU change (Correlation analysis) ([4]; Chitin 10-[…], 3 μM probe): Increases | RFU change (Signal deviation with increasing [Carbohydrate]) [4, 10]: Increases | λmax change [4, 10]: Redshift | carbohydrate can be detected and/or differentiated by the LCO ([4]; Chitin): can be detected and/or differentiated | Gradient Parameters (gradient of regression line) [4, 11]: −139.6 ± 344.8 | Quality of Gradient [4, 11]: Horizontal | Gradient Parameters (gradient of regression line) [4, 12]: 2824 ± 156.6 | Linear relationship [4, 12]: Significant | Quality of Gradient [4, 12]: Positive | Sensitivity ([4]; to cellulose): No | Sensitivity ([4]; to chitin): Yes | Sensitivity ([4]; to β-1,3-glucan): Yes | carbohydrate can be detected and/or differentiated by the LCO ([4]; β-1,3-Glucan): can be detected and/or differentiated | RFU change (Correlation analysis) ([4]; β-1,3-glucan 10-[…], 3 μM probe): Decrease | RFU change (Signal deviation with increasing [Carbohydrate]) ([4]; β-1,3-glucan 10-[…], 3 μM probe, spectral analysis, Excitation 300-500, Emission 545): Decrease | Gradient Parameters (gradient of regression line) [4, 13]: −898.7 ± 117.0 | Quality of Gradient [4, 13]: Negative | RFU change (Correlation analysis) ([5]; Sodium alginate 5-0.019 mg/ml, 3 μM probe, probe-specific excitation λ, emission 545 nm): Increases | RFU change (Signal deviation with increasing [Carbohydrate]) ([5]; Sodium alginate 5-0.019 mg/ml, 3 μM probe, spectral analysis, Excitation 300-500, Emission 545): Increases | Gradient Parameters (gradient of regression line) [5, 14]: 88.7 ± 62.0 | Quality of Gradient [5, 14]: Horizontal | Sensitivity ([5]; to sodium alginate): No | RFU change (Correlation analysis) ([6]; Glucose 5-0.019 mg/ml, 3 μM probe, probe-specific excitation λ, emission 545 nm): Decreases | RFU change (Signal deviation with increasing [Carbohydrate]) ([6]; Glucose 5-0.019 mg/ml, 3 μM probe, spectral analysis, Excitation 300-500, Emission 545): Decreases | carbohydrate can be detected and/or differentiated by the LCO ([6]; Glucose, conclusion from change in signal magnitude and/or shift in λmax): can be detected and/or differentiated | Gradient Parameters (gradient of regression line) [6, 15]: −116.0 ± 41.0 | Linear relationship [6, 15]: Significant | Quality of Gradient [6, 15]: Negative | Sensitivity ([6]; to glucose): Yes | RFU change (Correlation analysis) ([7]; Amylose 5-0.019 mg/ml, 3 μM probe): Increases | RFU change (Signal deviation with increasing [Carbohydrate]) ([7]; Amylose 5-0.019 mg/ml, 3 μM probe, spectral analysis, Excitation 300-500, Emission 545): Increases | carbohydrate can be detected and/or differentiated by the LCO ([7]; Amylose): can be detected and/or differentiated | RFU change (Correlation analysis) ([7]; Cellulobiose 5-0.019 mg/ml, 3 μM probe): Increases | RFU change (Signal deviation with increasing [Carbohydrate]) [7, 16]: Increases | λmax change [7, 16]: No change | carbohydrate can be detected and/or differentiated by the LCO ([7]; Cellulobiose): can be detected and/or differentiated | Gradient Parameters (gradient of regression line) [7, 17]: 493.6 ± 346.9 | Quality of Gradient [7, 17]: Horizontal | Gradient Parameters (gradient of regression line) [7, 18]: 178.6 ± 35.1 | Linear relationship [7, 18]: Significant | Quality of Gradient [7, 18]: Positive | Sensitivity ([7]; to amylose): Yes | Sensitivity ([7]; to cellulobiose): Yes | RFU change (Correlation analysis) ([8]; Glycogen 5-0.019 mg/ml, 3 μM probe): Decreases | RFU change (Signal deviation with increasing [Carbohydrate]) [8, 19]: Decreases | λmax change [8, 19]: Redshift | carbohydrate can be detected and/or differentiated by the LCO ([8]; Glycogen): can be detected and/or differentiated | RFU change (Correlation analysis) ([8]; Heparin 5-0.019 mg/ml, 3 μM probe): Unclear | RFU change (Signal deviation with increasing [Carbohydrate]) ([8]; Heparin 5-0.019 mg/ml, 3 μM probe, spectral analysis, Excitation 300-500, Emission 545): Unclear | carbohydrate can be detected and/or differentiated by the LCO ([8]; Heparin): can be detected and/or differentiated | Gradient Parameters (gradient of regression line) ([8]; glycogen concentration vs RFU): −349.2 ± 96.7 | Linear relationship ([8]; glycogen concentration vs RFU): Significant | Quality of Gradient ([8]; glycogen concentration vs RFU): Negative | Gradient Parameters (gradient of regression line) ([8]; heparin concentration vs RFU): −12.4 ± 108 | Linear relationship ([8]; heparin concentration vs RFU): Not Significant | Quality of Gradient ([8]; heparin concentration vs RFU): Horizontal | Sensitivity ([8]; to glycogen): Yes | Sensitivity ([8]; to heparin): No | RFU change (Correlation analysis) ([9]; Chondroitin Sulfate A 5-0.019 mg/ml, 3 μM probe, probe-specific excitation λ, emission 545 nm): Unclear | RFU change (Signal deviation with increasing [Carbohydrate]) [9, 20]: Decreases | λmax change [9, 20]: No change | Gradient Parameters (gradient of regression line) [9, 21]: 125.3 ± 156.5 | Quality of Gradient [9, 21]: Horizontal | Sensitivity ([9]; to Chondroitin Sulfate A): No
